Reference: PubChem BioAssay AID1963839 (Molecular Pharmacology Branch, DTP, NCI, 2024)

Tested on: 817829-284-R-J1-PDC complex spheroid viability
Assay: Anticancer human tumor 817829-284-R-J1-PDC patient-derived colon adenocarcinoma cell line growth inhibition [POLQ]
Settings: for IC50: curve of first compound; for viability, T/C: stronger effect = lower value
In short: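 PDC + HUVEC + MSC complex spheroids; POLQ inhibitors ± partner drugs; top conc. at/near clinical Cmax, else 10 microM (SN-38 1 microM), half-log dilutions; 37 degrees C, 5% CO2.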

[1] = second compound 0.0316 µM, first compound 0.0316 µM
[2] = second compound 0.0316 µM, first compound 0.1 µM
[3] = second compound 0.0316 µM, first compound 0.316 µM
[4] = second compound 0.0316 µM, first compound 1 µM
[5] = second compound 0.0316 µM, first compound 3.16 µM
[6] = second compound 0.0316 µM, first compound 10 µM
[7] = second compound 0.1 µM, first compound 0.0316 µM
[8] = second compound 0.1 µM, first compound 0.1 µM
[9] = second compound 0.1 µM, first compound 0.316 µM
[10] = second compound 0.1 µM, first compound 1 µM
[11] = second compound 0.1 µM, first compound 3.16 µM
[12] = second compound 0.1 µM, first compound 10 µM
[13] = second compound 0.316 µM, first compound 0.0316 µM
[14] = second compound 0.316 µM, first compound 0.1 µM
[15] = second compound 0.316 µM, first compound 0.316 µM
[16] = second compound 0.316 µM, first compound 1 µM
[17] = second compound 0.316 µM, first compound 3.16 µM
[18] = second compound 0.316 µM, first compound 10 µM
[19] = second compound 1 µM, first compound 0.0316 µM
[20] = second compound 1 µM, first compound 0.1 µM
[21] = second compound 1 µM, first compound 0.316 µM
[22] = second compound 1 µM, first compound 1 µM
[23] = second compound 1 µM, first compound 3.16 µM
[24] = second compound 1 µM, first compound 10 µM
[25] = second compound 3.16 µM, first compound 0.0316 µM
[26] = second compound 3.16 µM, first compound 0.1 µM
[27] = second compound 3.16 µM, first compound 0.316 µM
[28] = second compound 3.16 µM, first compound 1 µM
[29] = second compound 3.16 µM, first compound 3.16 µM
[30] = second compound 3.16 µM, first compound 10 µM
[31] = second compound 10 µM, first compound 0.0316 µM
[32] = second compound 10 µM, first compound 0.1 µM
[33] = second compound 10 µM, first compound 0.316 µM
[34] = second compound 10 µM, first compound 1 µM
[35] = second compound 10 µM, first compound 3.16 µM
[36] = second compound 10 µM, first compound 10 µM
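Note: spheroids exposed to compounds for 7 days.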
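Throughout, for viability, T/C: 100% = DMSO vehicle-treated spheroids.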

For `C=CC(=O)N1CCN(c2nc(=O)n(-c3c(C)ccnc3C(C)C)c3nc(-c4c(O)cccc4F)c(F)cc23)C(C)C1` (stereo unspecified) + COC1C(OC(N)=O)C(O)C(Oc2ccc3c(O)c(NC(=O)c4ccc(O)c(CC=C(C)C)c4)c(=O)oc3c2C)OC1(C)C, the IC50 (second compound 0.0316 µM) was > 10 µM, the IC50 (second compound 0.1 µM) was > 10 µM and the IC50 (second compound 0.316 µM) was > 10 µM. The IC50 (second compound 1 µM) was > 10 µM, the IC50 (second compound 3.16 µM) was > 10 µM and the IC50 (second compound 10 µM) was > 10 µM. The viability, T/C [1] was 87.6%, the viability, T/C [2] was 125% and the viability, T/C [3] was 89.3%. The viability, T/C [4] was 99.9%, the viability, T/C [5] was 121% and the viability, T/C [6] was 67.3%. For the same compound, the viability, T/C [7] was 124%, the viability, T/C [8] was 100% and the viability, T/C [9] was 133%. It also gave a viability, T/C [10] of 83.3%, a viability, T/C [11] of 118% and a viability, T/C [12] of 76.2%. For the same compound, the viability, T/C [13] was 115%, the viability, T/C [14] was 127% and the viability, T/C [15] was 104%. The viability, T/C [16] was 97.4%, the viability, T/C [17] was 95.7% and the viability, T/C [18] was 59.6%. For the same compound, the viability, T/C [19] was 132%, the viability, T/C [20] was 104% and the viability, T/C [21] was 77.8%. The viability, T/C [22] was 140%, the viability, T/C [23] was 89.3% and the viability, T/C [24] was 51.2%. For the same compound, the viability, T/C [25] was 102%, the viability, T/C [26] was 108% and the viability, T/C [27] was 123%. The viability, T/C [28] was 97%, the viability, T/C [29] was 80.4% and the viability, T/C [30] was 72.2%. It also gave a viability, T/C [31] of 78.8%, a viability, T/C [32] of 96.8% and a viability, T/C [33] of 80.7%. It also gave a viability, T/C [34] of 98.2%, a viability, T/C [35] of 107% and a viability, T/C [36] of 57.3%.

`CC(C)n1c(=O)n(C)c2cnc3cc(F)c(-c4ccc(OCCCN5CCCCC5)nc4)cc3c21` + COC1C(OC(N)=O)C(O)C(Oc2ccc3c(O)c(NC(=O)c4ccc(O)c(CC=C(C)C)c4)c(=O)oc3c2C)OC1(C)C was tested, and the IC50 (second compound 0.0316 µM) was > 10 µM, the IC50 (second compound 0.1 µM) was 7.06 µM and the IC50 (second compound 0.316 µM) was > 10 µM. The IC50 (second compound 1 µM) was 4.94 µM, the IC50 (second compound 3.16 µM) was 4.97 µM and the IC50 (second compound 10 µM) was 5.05 µM. It also gave a viability, T/C [1] of 88.5%, a viability, T/C [2] of 95.9% and a viability, T/C [3] of 61.4%. It also gave a viability, T/C [4] of 93.1%, a viability, T/C [5] of 84.5% and a viability, T/C [6] of 52.6%. It also gave a viability, T/C [7] of 74.4%, a viability, T/C [8] of 82.5% and a viability, T/C [9] of 129%. The viability, T/C [10] was 102%, the viability, T/C [11] was 72.7% and the viability, T/C [12] was 40.2%. It also gave a viability, T/C [13] of 78.5%, a viability, T/C [14] of 96.5% and a viability, T/C [15] of 86.3%. For the same compound, the viability, T/C [16] was 93%, the viability, T/C [17] was 71.4% and the viability, T/C [18] was 55.8%. It also gave a viability, T/C [19] of 102%, a viability, T/C [20] of 102% and a viability, T/C [21] of 84%. The viability, T/C [22] was 81.1%, the viability, T/C [23] was 62.5% and the viability, T/C [24] was 31.8%. The viability, T/C [25] was 81.9%, the viability, T/C [26] was 87.8% and the viability, T/C [27] was 78.6%. For the same compound, the viability, T/C [28] was 85.8%, the viability, T/C [29] was 71.3% and the viability, T/C [30] was 16.9%. It also gave a viability, T/C [31] of 80.5%, a viability, T/C [32] of 65.4% and a viability, T/C [33] of 62.1%. The viability, T/C [34] was 81.4%, the viability, T/C [35] was 74.4% and the viability, T/C [36] was 16.9%.

With `CC1COCCN1c1cc(-c2ccnn2C)c2ccnc(-c3ccn[nH]3)c2n1` (stereo unspecified) + COC1C(OC(N)=O)C(O)C(Oc2ccc3c(O)c(NC(=O)c4ccc(O)c(CC=C(C)C)c4)c(=O)oc3c2C)OC1(C)C the IC50 (second compound 0.0316 µM) was < 0.0316 µM, the IC50 (second compound 0.1 µM) was < 0.0316 µM and the IC50 (second compound 0.316 µM) was < 0.0316 µM. The IC50 (second compound 1 µM) was < 0.0316 µM, the IC50 (second compound 3.16 µM) was < 0.0316 µM and the IC50 (second compound 10 µM) was < 0.0316 µM. For the same compound, the viability, T/C [1] was 30.4%, the viability, T/C [2] was 13.2% and the viability, T/C [3] was 5.49%. For the same compound, the viability, T/C [4] was 4.46%, the viability, T/C [5] was 3.26% and the viability, T/C [6] was 3.12%. It also gave a viability, T/C [7] of 38.1%, a viability, T/C [8] of 12.8% and a viability, T/C [9] of 4.68%. It also gave a viability, T/C [10] of 4.07%, a viability, T/C [11] of 3.1% and a viability, T/C [12] of 3.09%. The viability, T/C [13] was 38.2%, the viability, T/C [14] was 11.9% and the viability, T/C [15] was 5.3%. For the same compound, the viability, T/C [16] was 4.05%, the viability, T/C [17] was 3.4% and the viability, T/C [18] was 2.6%. For the same compound, the viability, T/C [19] was 26.4%, the viability, T/C [20] was 11.9% and the viability, T/C [21] was 5.6%. For the same compound, the viability, T/C [22] was 4.46%, the viability, T/C [23] was 3.01% and the viability, T/C [24] was 2.34%. The viability, T/C [25] was 42.2%, the viability, T/C [26] was 11% and the viability, T/C [27] was 7.02%. It also gave a viability, T/C [28] of 4.4%, a viability, T/C [29] of 2.97% and a viability, T/C [30] of 2.67%. The viability, T/C [31] was 47.5%, the viability, T/C [32] was 13.4% and the viability, T/C [33] was 5.44%. The viability, T/C [34] was 4.22%, the viability, T/C [35] was 3.19% and the viability, T/C [36] was 2.65%.
